# pIC50: −log10 of the molar value. The source made the active and inactive calls. No rule for the calls is given here.
# Legend:
# [1] = Solubility of compound in water; format: physicochemical
# Streptococcus mutans [2] = assay: Bactericidal activity against Streptococcus mutans UA159 assessed as reduction in bacterial growth at 100 uM after 24 hrs; format: functional, organism-based
# Streptococcus mutans [3] = assay: Antibiofilm activity against Streptococcus mutans UA159 assessed as inhibition of biofilm formation by serial dilution method; format: functional, organism-based; settings: for pIC50: Streptococcus mutans, UA159, read-out: IC50
Structure (SMILES),"solubility ([1]; water, read-out: solubility)",pIC50 (Streptococcus mutans [3]),solubility ([1]; buffer),IC50 (Streptococcus mutans [3]),Activity (Streptococcus mutans [2])
CC(C)(C)OC(=O)NCc1ccccc1NC(=O)c1cc2ccccc2s1,20 µg/mL,4.36,,,inactive
COC(=O)c1ccccc1NC(=O)c1cc2cc(OC)ccc2[nH]1,,,Insoluble,Nd(Insoluble),inactive
COC(=O)c1cccc(NC(=O)c2cc3cc([N+](=O)[O-])ccc3s2)c1,25 µg/mL,4.26,,,inactive
O=C(Nc1ccccc1)c1cc2cc([N+](=O)[O-])ccc2s1,10 µg/mL,< 3.52,,,inactive

# More lines, main results first:
"solubility ([1]; water, read-out: solubility)",pIC50 (Streptococcus mutans [3]),solubility ([1]; buffer),IC50 (Streptococcus mutans [3]),Structure (SMILES),Activity (Streptococcus mutans [2])
< 5 µg/mL,3.85,,,COC(=O)c1ccccc1NC(=O)c1cnc2ccccc2c1,inactive
25 µg/mL,4.08,,,NC(=O)c1ccccc1NC(=O)c1ccc2ccccc2c1,inactive
20 µg/mL,4.39,,,COC(=O)c1ccc(NC(=O)c2cc3ccccc3s2)cc1,inactive
,,Insoluble,Nd(Insoluble),NC(=O)c1ccc(NC(=O)c2cc3cc([N+](=O)[O-])ccc3[nH]2)cc1,inactive
5 µg/mL,4.26,,,NC(=O)c1ccc(NC(=O)c2ccc3ccccc3n2)cc1,inactive
< 5 µg/mL,4.05,,,COC(=O)c1ccccc1NC(=O)c1ccc2ccccc2n1,inactive

# Source: ChEMBL document CHEMBL4673385, “Discovery of Potent Inhibitors of Streptococcus mutans Biofilm with Antivirulence Activity” (ACS Med Chem Lett, 2021)
